From PubChem BioAssay AID280 (DTP/NCI, 2004)
“And” between values parts separate entries of the source, which are not always exact repeats. Identical values can stand only once. Inconclusive results and toxic doses are left out.

Tested on: nude mice, LOX melanoma ip, survival T/C
Test: NCI In Vivo Anticancer Drug Screen. Data for tumor model Human Amelanotic Melanoma (LOX) (intraperitoneal) in NU/NU BALB/C (nude) mice
Details: endpoint: median survival time, higher = longer survival
Procedure: The antitumor activity of compounds was measured in mice bearing transplantable tumors. Survival or tumor size were measured and the results are expressed as the measurement made in the treated group (T) divided by the measurement made in the vehicle treated control group (C). The tumor model used in this assay is Human Amelanotic Melanoma (LOX) (intraperitoneal) in NU/NU BALB/C (nude) mice

[1] = dose: 30.0 mg/kg/injection, schedule: Q04DX003 (ip), vehicle: saline
[2] = dose: 60.0 mg/kg/injection, schedule: Q04DX003 (ip), vehicle: saline
[3] = dose: 18.75 mg/kg/injection, schedule: Q04DX003 (ip), vehicle: water
[4] = dose: 37.5 mg/kg/injection, schedule: Q04DX003 (ip), vehicle: water
[5] = dose: 75.0 mg/kg/injection, schedule: Q04DX003 (ip), vehicle: water
[6] = dose: 5.0 mg/kg/injection, schedule: Q04DX003 (ip), vehicle: water
[7] = dose: 120.0 mg/kg/injection, schedule: Q04DX003 (ip), vehicle: saline
[8] = dose: 240.0 mg/kg/injection, schedule: Q04DX003 (ip), vehicle: saline

With `O=c1[nH]cc(F)c(=O)[nH]1` the T/C (dose: 5.0 mg/kg/injection, schedule: Q01DX005 (ip), vehicle: saline) was 123 % of control, the T/C (dose: 5.0 mg/kg/injection, schedule: Q01DX015 (ip), vehicle: saline) was 115 % of control and the T/C (dose: 10.0 mg/kg/injection, schedule: Q01DX015 (ip), vehicle: saline) was 224 % of control. The T/C (dose: 10.0 mg/kg/injection, schedule: Q04DX003 (ip), vehicle: saline) was 163 % of control, the T/C (dose: 15.0 mg/kg/injection, schedule: Q04DX003 (ip), vehicle: saline) was 108 % of control and the T/C (dose: 20.0 mg/kg/injection, schedule: Q01DX005 (ip), vehicle: saline) was 166 % of control. The T/C (dose: 20.0 mg/kg/injection, schedule: Q01DX015 (ip), vehicle: saline) was 211 % of control, the T/C (dose: 20.0 mg/kg/injection, schedule: Q04DX003 (ip), vehicle: saline) was 191 % of control and the T/C [1] was 179 % of control. For the same molecule, the T/C (dose: 40.0 mg/kg/injection, schedule: Q01DX005 (ip), vehicle: saline) was 160 % of control and the T/C [2] was 185 % of control.
`c1ccc2c3c(c4c(c2c1)CN(C1CCCCC1)CO4)OCN(C1CCCCC1)C3` was tested, and the T/C [3] was 102 % of control, the T/C [4] was 107 % of control and the T/C [5] was 123 % of control.
In the case of `CCOC(=O)c1ccc(NN=NCCF)cc1`, the T/C (dose: 75.0 mg/kg/injection, schedule: Q04DX003 (ip), vehicle: distilled water + Tween-80 + alcohol) is reported as 111 % of control, the T/C (dose: 150.0 mg/kg/injection, schedule: Q04DX003 (ip), vehicle: distilled water + Tween-80 + alcohol) is reported as 106 % of control and the T/C (dose: 300.0 mg/kg/injection, schedule: Q04DX003 (ip), vehicle: distilled water + Tween-80 + alcohol) is reported as 110 % of control. The T/C (dose: 600.0 mg/kg/injection, schedule: Q04DX003 (ip), vehicle: distilled water + Tween-80 + alcohol) was 100 % of control.
For `COc1cc(C2CC(C)(O)Oc3cc4c(cc32)OCO4)cc(OC)c1OC` (stereo not given), the T/C (dose: 50.0 mg/kg/injection, schedule: Q04DX003 (ip), vehicle: saline with Tween-80) was 109 % of control and 98 % of control, the T/C (dose: 100.0 mg/kg/injection, schedule: Q04DX003 (ip), vehicle: saline with Tween-80) was 96 % of control and the T/C (dose: 200.0 mg/kg/injection, schedule: Q04DX003 (ip), vehicle: saline with Tween-80) was 93 % of control.
In the case of `COc1ccc(/C=C/C(=O)c2ccccc(=O)c2O)c(OC)c1OC`, the T/C (dose: 6.85 mg/kg/injection, schedule: Q04DX003 (ip), vehicle: Klucel (hydroxypropylcellulose) (HPC)) is reported as 100 % of control, the T/C (dose: 13.7 mg/kg/injection, schedule: Q04DX003 (ip), vehicle: Klucel (hydroxypropylcellulose) (HPC)) is reported as 100 % of control and the T/C (dose: 27.5 mg/kg/injection, schedule: Q04DX003 (ip), vehicle: Klucel (hydroxypropylcellulose) (HPC)) is reported as 110 % of control. The T/C (dose: 55.0 mg/kg/injection, schedule: Q04DX003 (ip), vehicle: Klucel (hydroxypropylcellulose) (HPC)) was 104 % of control and the T/C (dose: 110.0 mg/kg/injection, schedule: Q04DX003 (ip), vehicle: Klucel (hydroxypropylcellulose) (HPC)) was 110 % of control.
For `CCC(NC(N)=O)C(CC)NC(N)=O` (stereo not given), the T/C (dose: 3.13 mg/kg/injection, schedule: Q04DX003 (ip), vehicle: saline with Tween-80) was 103 % of control, the T/C (dose: 6.25 mg/kg/injection, schedule: Q04DX003 (ip), vehicle: saline with Tween-80) was 109 % of control and the T/C (dose: 25.0 mg/kg/injection, schedule: Q04DX003 (ip), vehicle: saline with Tween-80) was 105 % of control.
In the case of `C/C=C/C=C/c1cc2cc3c(c(O)c2c(=O)[nH]1)C1(CC3)C(O)=c2c(=O)c3c(=O)cc(OC)c(=O)c=3c(=O)c2=C1O` (stereo not given), the T/C (dose: 1.0 mg/kg/injection, schedule: Q04DX003 (ip), vehicle: water) is reported as 155 % of control, the T/C (dose: 1.8 mg/kg/injection, schedule: Q04DX003 (ip), vehicle: water) is reported as 155 % of control and the T/C (dose: 3.0 mg/kg/injection, schedule: Q04DX003 (ip), vehicle: water) is reported as 169 % of control and 177 % of control. The T/C [6] was 177 % of control and the T/C (dose: 8.3 mg/kg/injection, schedule: Q04DX003 (ip), vehicle: water) was 189 % of control.
With `O=CC(CO)CC(C=O)n1cnc2c(=O)[nH]cnc21` (stereo not given) the T/C (dose: 50.0 mg/kg/injection, schedule: Q04DX003 (ip), vehicle: saline) was 109 % of control, the T/C (dose: 100.0 mg/kg/injection, schedule: Q04DX003 (ip), vehicle: saline) was 102 % of control and the T/C (dose: 200.0 mg/kg/injection, schedule: Q04DX003 (ip), vehicle: saline) was 103 % of control. For the same molecule, the T/C (dose: 400.0 mg/kg/injection, schedule: Q04DX003 (ip), vehicle: saline) was 113 % of control and the T/C (dose: 800.0 mg/kg/injection, schedule: Q04DX003 (ip), vehicle: saline) was 100 % of control.
For `CN=C(NC#N)NCCSCc1nc[nH]c1C`, the T/C (dose: 75.0 mg/kg/injection, schedule: Q04DX003 (ip), vehicle: Klucel (hydroxypropylcellulose) (HPC)) was 98 % of control, the T/C (dose: 150.0 mg/kg/injection, schedule: Q04DX003 (ip), vehicle: Klucel (hydroxypropylcellulose) (HPC)) was 98 % of control and the T/C (dose: 300.0 mg/kg/injection, schedule: Q04DX003 (ip), vehicle: Klucel (hydroxypropylcellulose) (HPC)) was 101 % of control.
`COC(=O)C1C2CCCN2OC1(C)CO` (stereo not given) was tested, and the T/C [1] was 103 % of control, the T/C [2] was 97 % of control and the T/C (dose: 62.5 mg/kg/injection, schedule: Q04DX003 (ip), vehicle: saline with Tween-80) was 111 % of control. For the same molecule, the T/C [7] was 99 % of control, the T/C [8] was 89 % of control and the T/C (dose: 250.0 mg/kg/injection, schedule: Q04DX003 (ip), vehicle: saline with Tween-80) was 101 % of control. For the same molecule, the T/C (dose: 500.0 mg/kg/injection, schedule: Q04DX003 (ip), vehicle: saline with Tween-80) was 100 % of control and the T/C (dose: 1000.0 mg/kg/injection, schedule: Q04DX003 (ip), vehicle: saline with Tween-80) was 98 % of control.
In the case of `CCCSc1nc(COC(=O)NC)c(COC(=O)NC)n1C`, the T/C [1] is reported as 113 % of control, the T/C [2] is reported as 110 % of control and the T/C [7] is reported as 90 % of control. For the same molecule, the T/C [8] was 98 % of control.
In the case of `CNC(=O)OCc1nc(SC)n(C)c1COC(=O)NC`, the T/C (dose: 51.2 mg/kg/injection, schedule: Q04DX003 (ip), vehicle: water) is reported as 179 % of control, the T/C (dose: 57.5 mg/kg/injection, schedule: Q04DX003 (ip), vehicle: saline) is reported as 156 % of control and the T/C (dose: 76.7 mg/kg/injection, schedule: Q04DX003 (ip), vehicle: water) is reported as 229 % of control. The T/C (dose: 115.0 mg/kg/injection, schedule: Q04DX003 (ip), vehicle: saline) was 234 % of control and the T/C (dose: 115.0 mg/kg/injection, schedule: Q04DX003 (ip), vehicle: water) was 354 % of control.
With `COC1CC2C=C(C)/C=C/C=C/C(=O)NC(c3ccccc3)C/C=C/CCC(O)CC(=O)C2=C1O` (stereo not given) the T/C (dose: 18.75 mg/kg/injection, schedule: Q04DX003 (ip), vehicle: Klucel (hydroxypropylcellulose) (HPC)) was 112 % of control and the T/C (dose: 37.5 mg/kg/injection, schedule: Q04DX003 (ip), vehicle: Klucel (hydroxypropylcellulose) (HPC)) was 187 % of control.
In the case of `O=NNc1ccc(Cl)cn1`, the T/C (dose: 2.5 mg/kg/injection, schedule: Q04DX003 (ip), vehicle: water) is reported as 105 % of control, the T/C (dose: 3.13 mg/kg/injection, schedule: Q04DX003 (ip), vehicle: water) is reported as 111 % of control and the T/C [6] is reported as 101 % of control. For the same molecule, the T/C (dose: 6.25 mg/kg/injection, schedule: Q04DX003 (ip), vehicle: water) was 112 % of control, the T/C (dose: 10.0 mg/kg/injection, schedule: Q04DX003 (ip), vehicle: water) was 118 % of control and the T/C (dose: 20.0 mg/kg/injection, schedule: Q04DX003 (ip), vehicle: water) was 124 % of control.
For `CC/C(=C(\c1ccccc1)c1ccc(OCCN(C)C)cc1)c1ccccc1`, the T/C (dose: 75.0 mg/kg/injection, schedule: Q04DX003 (ip), vehicle: suspension in saline) was 109 % of control, the T/C (dose: 150.0 mg/kg/injection, schedule: Q04DX003 (ip), vehicle: suspension in saline) was 101 % of control and the T/C (dose: 300.0 mg/kg/injection, schedule: Q04DX003 (ip), vehicle: suspension in saline) was 96 % of control. The T/C (dose: 600.0 mg/kg/injection, schedule: Q04DX003 (ip), vehicle: suspension in saline) was 95 % of control.
In the case of `O=NNc1ccc2cccnc2n1`, the T/C (dose: 9.38 mg/kg/injection, schedule: Q04DX003 (ip), vehicle: water) is reported as 99 % of control, the T/C [3] is reported as 120 % of control and the T/C [4] is reported as 157 % of control. For the same molecule, the T/C [5] was 192 % of control and the T/C (dose: 150.0 mg/kg/injection, schedule: Q04DX003 (ip), vehicle: water) was 214 % of control.
With `CN(C)N=Nc1ccc(C(N)=O)cc1` the T/C (dose: 22.5 mg/kg/injection, schedule: Q04DX003 (ip), vehicle: saline with Tween-80) was 99 % of control, the T/C (dose: 45.0 mg/kg/injection, schedule: Q04DX003 (ip), vehicle: saline with Tween-80) was 120 % of control and the T/C (dose: 180.0 mg/kg/injection, schedule: Q04DX003 (ip), vehicle: saline with Tween-80) was 153 % of control. For the same molecule, the T/C (dose: 360.0 mg/kg/injection, schedule: Q04DX003 (ip), vehicle: saline with Tween-80) was 210 % of control.
